Measurements from patent US20100022584A1, “Modulation of Glutamine Synthetase Activity” (priority 2006, published 2010).
Residue numbers refer to the chain shown, from its start.

Experiments:
[1] = target: T1, glutamine synthetase mutant S52A S53A Y397V (Escherichia coli, UniProt P0A9C5, S53A/S54A/Y398V); test: HPLC forward-reaction glutamine synthetase assay with serine protease inhibitors; format: biochemical, E. coli; conditions: 1 mM inhibitor; for inhibition of the enzyme (in words): HPLC assays; for % Reduction in ADP-based Specific Activity / % Reduction in Glutamine-based Specific Activity / % Conversion: Mn assay; for % Reduction in ADP-based Specific Activity / % Reduction in Glutamine-based Specific Activity: 60 min pre-incubation, vs no-inhibitor control; for % Reduction in Glutamine-based Specific Activity: positive = activity increased; for % Conversion: glutamine-based divided by ADP-based specific activity
T1 construct: made in house; host or cells: E. coli YMC11 (glutamine synthetase auxotroph), pBluescript II SK+
T1 sequence (P0A9C5 2-469 S53A/S54A/Y398V limits assumed): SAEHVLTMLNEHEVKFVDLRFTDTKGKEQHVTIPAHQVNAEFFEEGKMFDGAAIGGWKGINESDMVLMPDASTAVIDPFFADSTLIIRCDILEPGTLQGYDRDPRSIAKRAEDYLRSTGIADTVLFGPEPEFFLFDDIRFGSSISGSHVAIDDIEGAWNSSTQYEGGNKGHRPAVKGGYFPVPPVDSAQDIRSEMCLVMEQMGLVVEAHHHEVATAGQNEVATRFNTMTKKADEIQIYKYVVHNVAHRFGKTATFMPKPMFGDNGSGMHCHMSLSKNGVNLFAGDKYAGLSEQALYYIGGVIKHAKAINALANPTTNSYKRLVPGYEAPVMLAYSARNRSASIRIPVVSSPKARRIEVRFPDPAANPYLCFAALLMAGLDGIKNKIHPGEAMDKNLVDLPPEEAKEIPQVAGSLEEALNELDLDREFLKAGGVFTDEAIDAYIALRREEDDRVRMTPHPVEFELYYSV
Protocol: (§1) This assay was set up to measure glutamine synthetase activity according to the forward reaction, and measures the amount of glutamine formed from […] of L-glutamate in the presence of MnCO3-ATP (the basis of one reaction) and MgATP (the basis of a second reaction). In addition, the amount of ADP formed is also measured in a separate assay, using the same reagents.
(§2) All enzyme preparations were adjusted to the same concentration of protein, and added to the assay mixture in a volume of 50 μl. The addition of the enzyme started the reaction, which was then allowed to proceed for 1 hour. The reaction was stopped by the addition of 6 μl of a 50% solution of trichloroacetic acid. Each assay was then aliquoted into 4 HPLC vials (150 μl per vial), two of which were assayed for glutamate and glutamine using a Phenomenex Luna 5 μC18 Column on an Agilent 100 HPLC instrument. The ATP/ADP assays were run on a Chromolith Performance RP-18c column also using an Agilent 100 HPLC instrument.
(§3) As it is believed that two putative catalytic triads, similar to those in the serine proteases, are involved in the reaction mechanism of glutamine synthetase, certain of the mutants were also assayed by HPLC in the presence of the serine protease inhibitors, AEBSF and PMSF, in order to assess the effect that these inhibitors had on the enzyme. The enzymes assessed were the adenylylated WT enzyme, the deadenylylated WT enzyme, and the mutant enzymes S52A, S52A Y397V, S53A, S53A Y397V, S52A S53A and S52A S53A Y397V. The enzymes were pre-incubated for 60 minutes in the presence of 1 mM PMSF or 1 mM AEBSF. A control reaction was set up for each enzyme, which contained no inhibitor. Each enzyme was then added to assays set up as described above. The assay was allowed to proceed for 60 minutes, then stopped by the addition of […] of 50% TCA, after which they were analysed by HPLC. All assays were run in triplicate.
(§4) In addition to the γ-glutamyl transferase assays, assays were also developed to measure the rate of conversion of ATP and glutamate to ADP and glutamine by HPLC. These were set up as single assays but analysed separately for glutamate and glutamine and ATP and ADP. The conversion rates for glutamate to glutamine, in both the presence of Mn^2+ and Mg^2+ by glutamine synthetase, is referred to as the […] specific activity and is presented in μmoles/min/mg protein. The conversion rates for ATP to ADP, in both the presence of Mn^2+ and Mg^2+ by glutamine synthetase, is referred to as the ADP-based specific activity and is presented in μmoles/min/mg protein. The percentage of conversion was also calculated by dividing the glutamine-based specific activity by the ADP-based specific activity, and this value is interpreted as the ability of the enzyme to complete both steps of the reaction, i.e., glutamate to glutamine and ATP to ADP, at an equivalent level of efficiency.

[2] = target: T2, adenylylated WT enzyme, WT (AD) glutamine synthetase (Escherichia coli, UniProt P0A9C5); test: as above; format: biochemical, E. coli; conditions: 1 mM inhibitor; for % Reduction in ADP-based Specific Activity / % Reduction in Glutamine-based Specific Activity / % Conversion: WT (AD); for % Reduction in ADP-based Specific Activity / % Reduction in Glutamine-based Specific Activity: 60 min pre-incubation, vs no-inhibitor control, positive = activity increased; for % Conversion: glutamine-based divided by ADP-based specific activity; for inhibition of the enzyme (in words): adenylylated WT enzyme, HPLC assays
T2 construct: made in house; host or cells: E. coli carrying pBSK-ECgln (pBluescript II SK+), continuous culture; YMC11 is the expression strain named for this plasmid
T2 sequence (P0A9C5 2-469 limits assumed): T1 sequence (P0A9C5 2-469 S53A/S54A/Y398V limits assumed) with A52S, A53S, V397Y
Protocol: as §1, §2, §3, §4

NCCc1ccc(S(=O)(=O)F)cc1 [AEBSF]
inhibition of the enzyme (in words) [1]: appeared to cause inhibition | % Reduction in ADP-based Specific Activity [1]: −5.20% | % Reduction in Glutamine-based Specific Activity [1]: −1.65% | % Conversion [1]: 75% | % Reduction in ADP-based Specific Activity ([2]; Mg assay): −34.60% | % Reduction in Glutamine-based Specific Activity ([2]; Mg assay): −24.59% | % Conversion ([2]; Mg assay): 134% | % Reduction in ADP-based Specific Activity ([2]; Mn assay): −26.76% | % Reduction in Glutamine-based Specific Activity ([2]; Mn assay): −14.86% | % Conversion ([2]; Mn assay): 118% | inhibition of the enzyme (in words) [2]: appeared to cause inhibition

O=S(=O)(F)Cc1ccccc1 [PMSF]
inhibition of the enzyme (in words) [1]: did not significantly inhibit | % Reduction in ADP-based Specific Activity [1]: −4.83% | % Reduction in Glutamine-based Specific Activity [1]: −18.20% | % Conversion [1]: 62% | % Reduction in ADP-based Specific Activity ([2]; Mg assay): +48.13% | % Reduction in Glutamine-based Specific Activity ([2]; Mg assay): −46.33% | % Conversion ([2]; Mg assay): 42% | % Reduction in ADP-based Specific Activity ([2]; Mn assay): −15.63% | % Reduction in Glutamine-based Specific Activity ([2]; Mn assay): −49.20% | % Conversion ([2]; Mn assay): 61% | inhibition of the enzyme (in words) [2]: found to inhibit
